Results reported in PMC8445441, “Elucidating the mechanism by which synthetic helper peptides sensitize Pseudomonas aeruginosa to multiple antibiotics” (PLoS Pathogens, 2021).
Positions of bridges follow the written chain, without caps; N, C: chain ends. Non-standard residues stand in square brackets, D forms with d. Residues, ends and D or L forms follow the SMILES beside them. *: point of attachment. X1 = CC[C@H](C)CCCCC(=O)*; Dab = NCC[C@H](N)C(=O)O

Tests used:
P. aeruginosa AUMC-Pa-3 = assay: microbe, parasite or virus in culture; settings: strain AUMC-Pa-3, unit not given
Procedure, shortened: (§1)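 MICs were determined by CLSI broth microdilution in MHB, in triplicate: two-fold drug dilutions were mixed 1:1 with bacterial suspension of ~1 × 10^6 CFU/mL and incubated 18 h at 37 °C. The MIC was the lowest concentration with no visible growth.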

P. aeruginosa AUMC-Pa-4 = assay: microbe, parasite or virus in culture; settings: strain AUMC-Pa-4, unit not given
Procedure, shortened: as §1

P. aeruginosa AUMC-Pa-5 = assay: microbe, parasite or virus in culture; settings: strain AUMC-Pa-5, unit not given
Procedure, shortened: as §1

P. aeruginosa AUMC-Pa-6 = assay: microbe, parasite or virus in culture; settings: strain AUMC-Pa-6, unit not given
Procedure, shortened: as §1

P. aeruginosa PAO1 = assay: microbe, parasite or virus in culture; settings: for MICac: the MIC for the antibiotic in the combination: S3 Table, PAO1
Procedure, shortened: as §1

P. aeruginosa ATCC27853 = assay: microbe, parasite or virus in culture; design: MICa: MIC of the antibiotic / MICac: MIC of the antibiotic in the combination: unit not given beside the values; settings: strain ATCC27853, unit not given
Procedure, shortened: as §1

P. aeruginosa NR-31040 = assay: microbe, parasite or virus in culture; design: MICa: MIC of the antibiotic / MICac: MIC of the antibiotic in the combination: unit not given beside the values; settings: strain NR-31040, unit not given
Procedure, shortened: as §1

P. aeruginosa NR-31041 = assay: microbe, parasite or virus in culture; design: MICa: MIC of the antibiotic / MICac: MIC of the antibiotic in the combination: unit not given beside the values; settings: strain NR-31041, unit not given
Procedure, shortened: as §1

P. aeruginosa PA14 = assay: microbe, parasite or virus in culture; design: MICa: MIC of the antibiotic / MICac: MIC of the antibiotic in the combination: unit not given beside the values; settings: strain PA14, unit not given
Procedure, shortened: as §1

P. aeruginosa PAK = assay: microbe, parasite or virus in culture; design: MICa: MIC of the antibiotic / MICac: MIC of the antibiotic in the combination: unit not given beside the values; settings: strain PAK, unit not given
Procedure, shortened: as §1

P. aeruginosa HM-214 = tested on: P. aeruginosa HM-214; design: MICa: MIC of the antibiotic / MICac: MIC of the antibiotic in the combination: unit not given beside the values; settings: strain HM-214, unit not given
Procedure, shortened: as §1

P. aeruginosa AUMC-Pa-1 = settings: strain AUMC-Pa-1, unit not given
Procedure, shortened: as §1

P. aeruginosa AUMC-Pa-2 = settings: strain AUMC-Pa-2, unit not given
Procedure, shortened: as §1

PAO1 in human blood = assay: Antimicrobial activity in blood (ex vivo bacteremia model); format: cell-based, Pseudomonas aeruginosa; settings: human blood, 5×10^7 CFU/mL PAO1; antibiotic combined with D-11 (4 μM); 4 hours
Experimental: Human blood of healthy individuals was obtained from Sanquin (certified Dutch organization responsible for meeting the need in healthcare for blood and blood products, https://www.sanquin.nl/) and was infected with 5×10^7 CFU/mL of PAO1. The blood was distributed at 0.5 mL in 2 mL Eppendorf tubes and treated with the antibiotics and peptides at the indicated concentrations at 37 °C for 4 hours. The samples were decimal serially diluted in PBS. Drops of 10 μL of each dilution on LB agar to track the development of infection. The experiment was performed in triplicate.

[1] = tested on: clinical P. aeruginosa isolates; assay: microbe, parasite or virus in culture; settings: clinical isolates, 18 h
Procedure, shortened: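 Broth microdilution per CLSI in MHB, two-fold drug dilutions mixed with an equal volume of bacteria at about 1 × 10^6 CFU/mL. After 18 h at 37 °C, MIC taken as the lowest concentration with no visible growth; run in triplicate.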

CC[C@H](C)CCCCC(=O)N[C@@H](CCN)C(=O)N[C@H](C(=O)N[C@@H](CCN)C(=O)N[C@H]1CCNC(=O)[C@H]([C@@H](C)O)NC(=O)[C@H](CCN)NC(=O)[C@H](CCN)NC(=O)[C@H](CC(C)C)NC(=O)[C@@H](Cc2ccccc2)NC(=O)[C@H](CCN)NC1=O)[C@@H](C)O [Polymyxin B] (X1-[Dab]T[Dab][Dab][Dab][dF]L[Dab][Dab]T; lactam 4-C (inferred); N-terminus assumed)
MICa: MIC of the antibiotic (P. aeruginosa AUMC-Pa-3; antibiotic alone): 0.125 | MICac: MIC of the antibiotic in the combination (P. aeruginosa AUMC-Pa-3; with D-11 at MICbc 4): 0.002 | MICa: MIC of the antibiotic (P. aeruginosa AUMC-Pa-4; antibiotic alone): 1 | MICac: MIC of the antibiotic in the combination (P. aeruginosa AUMC-Pa-4; with D-11 at MICbc 4): 0.5 | MICa: MIC of the antibiotic (P. aeruginosa AUMC-Pa-5; antibiotic alone): 1 | MICac: MIC of the antibiotic in the combination (P. aeruginosa AUMC-Pa-5; with D-11 at MICbc 4): 0.125 | MICa: MIC of the antibiotic (P. aeruginosa AUMC-Pa-6; antibiotic alone): 1 | MICac: MIC of the antibiotic in the combination (P. aeruginosa AUMC-Pa-6; with D-11 at MICbc 4): 0.25 | MIC of polymyxin B (P. aeruginosa PAO1; 1×MIC used as positive control): 0.5 µg/mL | MICa: the MIC of antibiotics (P. aeruginosa PAO1; PAO1, 18 h): 0.25 µM | MICac: the MIC for the antibiotic in the combination (P. aeruginosa PAO1; with 2 μM D-11): 0.004 µM | MICac: the MIC for the antibiotic in the combination (P. aeruginosa PAO1; with 4 μM D-11): 0.001 µM | MICa: MIC of the antibiotic (P. aeruginosa ATCC27853; antibiotic alone): 0.125 | MICac: MIC of the antibiotic in the combination (P. aeruginosa ATCC27853; with D-11 at MICbc 4): 0.008 | MICa: MIC of the antibiotic (P. aeruginosa NR-31040; antibiotic alone): 0.25 | MICac: MIC of the antibiotic in the combination (P. aeruginosa NR-31040; with D-11 at MICbc 4): 0.031 | MICa: MIC of the antibiotic (P. aeruginosa NR-31041; antibiotic alone): 0.125 | MICac: MIC of the antibiotic in the combination (P. aeruginosa NR-31041; with D-11 at MICbc 4): 0.008 | MICa: MIC of the antibiotic (P. aeruginosa PA14; antibiotic alone): 0.125 | MICac: MIC of the antibiotic in the combination (P. aeruginosa PA14; with D-11 at MICbc 4): 0.008 | MICa: MIC of the antibiotic (P. aeruginosa PAK; antibiotic alone): 0.125 | MICac: MIC of the antibiotic in the combination (P. aeruginosa PAK; with D-11 at MICbc 4): 0.008 | MICa: MIC of the antibiotic (P. aeruginosa HM-214; antibiotic alone): 0.25 | MICac: MIC of the antibiotic in the combination (P. aeruginosa HM-214; with D-11 at MICbc 4): 0.031 | MICa: MIC of the antibiotic (P. aeruginosa AUMC-Pa-1; antibiotic alone): 0.25 | MICac: MIC of the antibiotic in the combination (P. aeruginosa AUMC-Pa-1; with D-11 at MICbc 4): 0.016 | MICa: MIC of the antibiotic (P. aeruginosa AUMC-Pa-2; antibiotic alone): 0.25 | MICac: MIC of the antibiotic in the combination (P. aeruginosa AUMC-Pa-2; with D-11 at MICbc 4): 0.016 | antibacterial effect in blood (in words) (PAO1 in human blood): relative week antibacterial effects | Antibiotic sensibility (MIC) of clinical P. aeruginosa isolate AUMC-Pa-1 [1]: 0.25 µM | Antibiotic sensibility (MIC) of clinical P. aeruginosa isolate AUMC-Pa-2 [1]: 0.25 µM | Antibiotic sensibility (MIC) of clinical P. aeruginosa isolate AUMC-Pa-3 [1]: 0.125 µM | Antibiotic sensibility (MIC) of clinical P. aeruginosa isolate AUMC-Pa-4 [1]: 1 µM | Antibiotic sensibility (MIC) of clinical P. aeruginosa isolate AUMC-Pa-5 [1]: 1 µM | Antibiotic sensibility (MIC) of clinical P. aeruginosa isolate AUMC-Pa-6 [1]: 1 µM | Antibiotic sensibility (MIC) of clinical P. aeruginosa isolate HM-214 [1]: 0.25 µM | Antibiotic sensibility (MIC) of clinical P. aeruginosa isolate NR-31040 [1]: 0.25 µM | Antibiotic sensibility (MIC) of clinical P. aeruginosa isolate NR-31041 [1]: 0.125 µM
